Data set [1] relates to HeLa. Put plainly: Induction of apoptosis in human HeLa spheroids assessed as cell death at 100 nM preincubated for 3 hrs followed by irradiation with 23.6 milliwolt/cm2 of 525 nanometer laser light for 5 mins and measured after overnight by plate reader assay. It counts as functional, cell-based. The following applies: time 185.0 min.
The subject of data set [2] is HeLa. The data set can be described thus: Induction of ROS generation in human HeLa cells at 25 nM preincubated for 3 hrs followed by irradiation with 23.6 milliwolt/cm2 of 525 nanometer laser light for 5 mins and measured by DCFDA staining based flourescence method. It counts as functional, cell-based. The following applies: time 185.0 min.
Data set [3] has as its system HeLa. Put plainly: Dark toxicity in human HeLa cells assessed as reduction in cell viability measured after 3 hrs by MTT assay. It counts as cell-based. On the technique in general: Tetrazolium assays rely on reduction of a dye to a coloured formazan, in cell work by metabolically active cells.
Data set [4] relates to HeLa. The data set can be described thus: Induction of apoptosis in human HeLa cells at 1.25 nM preincubated for 3 hrs followed by irradiation with 23.6 milliwolt/cm2 of 525 nanometer laser light for 5 mins and measured after 4 hrs by Annexin V/PI staining based flowcytometry assay. The format is functional, cell-based. The note with it: time 185.0 min.
The nature of data set [5]: Drug uptake in human HeLa cells assessed as drug accumulation at 25 to 1000 nM incubated for 3 hrs under dark condition by […] mass cytometry. The format is ADME, cell-based. The following applies: 1 µM, dose 25-1000 nM.
Data set [6] is described as follows: Induction of singlet oxygen generation in DMF solution assessed as singlet oxygen quantum yield irradiated with 490 nanometer LED light by DPBF-based assay. The format is functional.
Data set [7] relates to HeLa. Put plainly: Induction of ROS generation in human HeLa cells at 25 nM measured after 3 hrs by DCFDA staining based flourescence assay. The format is cell-based. The following applies: 0.025 µM.

The source made the active and inactive calls. No cut-off for these calls is given here.

For `F[B-]1(F)n2cccc2C(c2ccc(-c3ccc[te]3)cc2)=C2C=CC=[N+]21`, the result in the data set on HeLa [1], in the data set with HeLa [2] and in the data set with HeLa [4] was Active. The IC50 (as a rule, the concentration at which inhibition is half-maximal) in the data set on HeLa [3] was found to be 1350 nM. The Drug uptake result in data set [5] is listed as “Active”. The Activity in data set [6] is 0.26; with HeLa [7], “Non-Toxic”.

(Values after ChEMBL document CHEMBL5055690, “Introducing the Tellurophene-Appended BODIPY: PDT Agent with Mass Cytometry Tracking Capabilities” (ACS Med Chem Lett, 2021).)
